The values that follow come from patent publication US20100129430A1, “LIPOSOME DRUG CARRIERS WITH PH-SENSITIVITY” (priority 2008, published 2010).

The nature of one series: pKa of lipid headgroups. The format is physicochemical. The note with it: lowest value that arranges all release-rate data points in a straight line. Here is the method:
The Zeta potential of liposomes containing different fractions of the titratable domain-forming lipid DSPA was measured in phosphate buffer at different pH values (7.4, 5.5, and 4.0) using a Zetasizer ZS90 (Malvern instruments, Worcestershire, UK). Measurements were performed in 10 mM PBS with no salt. For these measurements, liposomes (1 mM total lipid) were prepared without grafted PEG-chains on their surface to allow for closer approach of the plane of shear to the physical surface of lipid membranes.
For all lipid fractions, the rate of content release attributed to discontinuities at the interfacial boundaries is linearly proportional to the square root of protonated DSPA lipids and therefore proportional to the total perimeter of the discontinuities' interface (open symbols).
This deviation of the pKa value can be attributed to several factors. First, the proposed model of small, circular domains is certainly an oversimplification. Second, because the apparent pKa of PA should depend on the surface charge density, the values of apparent pKa should be composition-dependent.

The conditions of series [1]: reported value; cited from earlier work.

Take phosphatidic acid: in the series “pKa of lipid headgroups”, the “pKa used to calculate the fraction of protonated DSPA lipids” value was 4.5. For the same substance, the pKa in series [1] is recorded as 4.0.
